This is an account of results in paper PMC10092485, “Sialic Acid 4‐N‐Piperazine and Piperidine Derivatives Bind with High Affinity to the P. mirabilis Sialic Acid Sodium Solute Symporter” (Chemmedchem, 2022).

Common to all, as to format: binding
Experiment [1] concerns the target T1, PmSiaT (Proteus mirabilis, UniProt B4EZY7).
T1 construct: gene siaT; detergent-solubilised transporter in DDM; extinction coefficient 76,445
Kind of experiment: isothermal titration calorimetry. The conditions noted are these: 25 °C; 50 mM Tris-HCl, 150 mM NaCl, 0.0174 % DDM, pH 8.0 (at 5 °C); n fixed to 1. The source says: isothermal titration calorimetry on PmSiaT
A general note: ITC needs no label: the signal is the heat of the interaction.

Experiment [2] has as its target T1, PmSiaT. Kind of experiment: nanoDSF thermal shift. Conditions: PBS, 0.0174 % DDM, 2 μM protein, 1.25 mM ligand; shift counted from the Neu5Ac complex.
Experiment [3] has as its target T1, PmSiaT. The experiment in a line: nanoDSF thermal shift. Conditions: PBS, 0.0174 % DDM, 2 μM protein, 1.25 mM ligand; reference ligand for all shifts. On the technique in general: In DSF a fluorescence change marks the thermal transition of the protein.

SMILES strings stand for the structures.

T1 sequence (B4EZY7 whole entry): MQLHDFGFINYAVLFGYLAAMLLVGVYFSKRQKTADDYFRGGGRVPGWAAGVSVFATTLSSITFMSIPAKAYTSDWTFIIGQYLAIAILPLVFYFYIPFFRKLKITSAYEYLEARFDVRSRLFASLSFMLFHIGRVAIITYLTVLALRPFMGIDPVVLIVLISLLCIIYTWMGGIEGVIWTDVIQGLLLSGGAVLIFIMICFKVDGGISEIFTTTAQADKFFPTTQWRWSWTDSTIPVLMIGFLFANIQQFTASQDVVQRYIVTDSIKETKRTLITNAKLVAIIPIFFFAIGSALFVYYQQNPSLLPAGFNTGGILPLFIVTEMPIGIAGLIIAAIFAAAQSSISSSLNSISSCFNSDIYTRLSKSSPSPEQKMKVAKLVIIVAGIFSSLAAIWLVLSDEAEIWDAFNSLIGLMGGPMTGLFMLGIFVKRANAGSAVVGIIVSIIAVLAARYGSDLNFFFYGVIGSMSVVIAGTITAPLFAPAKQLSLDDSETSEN

What is called Kd is the free concentration of one partner at which half of the binding sites on the other are occupied at equilibrium, for simple one-to-one binding. Lower therefore signals tighter binding. In experiment [1], `CC(=O)N[C@H]1[C@H]([C@H](O)[C@H](O)CO)OC(O)(C(=O)O)C[C@@H]1N1CCC(c2cccc(Br)c2)CC1` (stereo partly drawn) [3 f, 5‐Acetamido‐4‐[4‐(3‐bromophenyl)piperidin‐1‐yl]‐3,4,5‐ trideoxy‐D‐glycero‐β‐D‐galacto‐nonulosonic acid] displayed a Kd of 1320 nM.

For `CC(=O)N[C@H]1[C@H]([C@H](O)[C@H](O)CO)OC(O)(C(=O)O)C[C@@H]1N1CCC(c2ccc(Br)cc2)CC1` (stereo partly drawn) [3 g, 5‐Acetamido‐4‐[4‐(4‐bromophenyl)piperidin‐1‐yl]‐3,4,5‐ trideoxy‐D‐glycero‐β‐D‐galacto‐nonulosonic acid], the “ΔT m (relative to Neu5Ac)” value in experiment [2] is given as “piperidine or piperazine‐linked halogenated aromatic residues showed the largest thermal stabilizations”.

Turning to `CC(=O)N[C@H]1[C@H]([C@H](O)[C@H](O)CO)OC(O)(C(=O)O)C[C@@H]1N1CCC(c2cccc(C(F)(F)F)c2)CC1` (stereo partly drawn) [3 h, 5‐Acetamido‐3,4,5‐ trideoxy‐4‐[4‐(3‐trifluoromethylphenyl)piperidin‐1‐yl]‐D‐glycero‐β‐D‐galacto‐nonulosonic acid], the “ΔT m (relative to Neu5Ac)” value in experiment [2] is reported as “piperidine or piperazine‐linked halogenated aromatic residues showed the largest thermal stabilizations”.

As for `CC(=O)N[C@H]1[C@H]([C@H](O)[C@H](O)CO)OC(O)(C(=O)O)C[C@@H]1N1CCC(c2cccc(O)c2)CC1` (stereo partly drawn) [3 i, 5‐Acetamido‐4‐[4‐(3‐hydroxyphenyl)piperidin‐1‐yl]‐3,4,5‐ trideoxy‐D‐glycero‐β‐D‐galacto‐nonulosonic acid], in experiment [1], the Kd was 17900 nM. This counts as double-digit micromolar.

Consider `CC(=O)N[C@H]1[C@H]([C@H](O)[C@H](O)CO)OC(O)(C(=O)O)C[C@@H]1N1CCN(C(=O)c2cccc(Cl)c2Cl)CC1` (stereo partly drawn) [6 c, 5‐Acetamido‐4‐[4‐(2,3‐dichlorobenzoyl)piperazin‐1‐yl]‐3,4,5‐ trideoxy‐D‐glycero‐β‐D‐galacto‐nonulosonic acid], for which the affinity in experiment [1], expressed as Kd, was 470 nM.

As to `CC(=O)N[C@H]1[C@H]([C@H](O)[C@H](O)CO)OC(O)(C(=O)O)C[C@@H]1O` (stereo partly drawn) [Neu5Ac], in experiment [3], the ΔT m entry is “The ΔT m reported are given in °C and relative to Neu5Ac”.
